In brackets after ≈: the same amount, converted by molar mass.
Experiments:
[1] = Metabolic stability in human liver microsomes assessed as compound metabolized after 15 mins; assay type: ADME, Microsome; settings: read-out: Drug metabolism
[2] = Cytotoxicity against human HeLa cells assessed as reduction in cell viability after 3 days by ATPlite assay
[3] = Aqueous solubility of the compound; assay type: physicochemical; settings: buffer
in vitro = settings: human, HeLa cells
Description: Selectivity index, ratio of CC50 for human HeLa cells to EC50 GFP-fused RSV 224 fusion protein infected in human HeLa cells

CYP3A4 = CYP3A4 (Homo sapiens, UniProt P08684); assay: Time-dependent inhibition of CYP3A4 in human liver microsomes assessed as ratio of IC50 in presence and absence of NADPH using testosterone as substrate; assay type: ADME; settings: probe testosterone, read-out: Ratio IC50
CYP3A4, sequence (P08684 whole entry): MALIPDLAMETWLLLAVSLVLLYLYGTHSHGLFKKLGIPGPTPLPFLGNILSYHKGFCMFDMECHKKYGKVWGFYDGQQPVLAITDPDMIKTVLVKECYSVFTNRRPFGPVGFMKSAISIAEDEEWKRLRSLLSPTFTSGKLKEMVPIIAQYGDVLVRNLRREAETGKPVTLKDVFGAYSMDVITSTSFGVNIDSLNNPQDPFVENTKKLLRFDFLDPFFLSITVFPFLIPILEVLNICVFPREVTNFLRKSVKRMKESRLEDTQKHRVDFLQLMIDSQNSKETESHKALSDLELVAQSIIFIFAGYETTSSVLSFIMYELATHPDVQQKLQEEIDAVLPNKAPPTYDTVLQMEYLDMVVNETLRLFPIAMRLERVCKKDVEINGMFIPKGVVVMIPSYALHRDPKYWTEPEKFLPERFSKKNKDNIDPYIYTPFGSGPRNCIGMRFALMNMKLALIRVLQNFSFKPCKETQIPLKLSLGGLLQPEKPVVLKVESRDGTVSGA

[4] = Ratio of AUC (0 to last) in lung to plasma of Sprague-Dawley rat at 10 mg/kg, po administered as single dose; assay type: ADME, organism-based; settings: lung and plasma, read-out: Ratio AUC
[5] = AUC in Sprague-Dawley rat at 10 mg/kg, po administered as single dose; assay type: ADME, organism-based; settings: in vivo
[6] = Cmax in Sprague-Dawley rat at 10 mg/kg, po administered as single dose; assay type: ADME, organism-based; parameters: dose 10 mg/kg, route oral; settings: in vivo
[7] = Clearance in Sprague-Dawley rat at 2 mg/kg, iv administered as single dose; assay type: ADME, organism-based; settings: in vivo
[8] = Volume of distribution at steady state in Sprague-Dawley rat at 2 mg/kg, iv administered as single dose; assay type: ADME, organism-based; settings: in vivo, read-out: Vdss
[9] = Protein binding in human plasma assessed as unbound fraction; assay type: ADME, cell-free
[10] = Metabolic stability in rat liver microsomes assessed as compound metabolized after 15 mins; assay type: ADME, Microsome; settings: read-out: Drug metabolism
[11] = Absolute oral bioavailability in Sprague-Dawley rat at 10 mg/kg administered as single dose; assay type: ADME, organism-based; settings: in vivo
Cytochrome P450 3A4 = Cytochrome P450 3A4 (Homo sapiens, UniProt P08684); assay: Time-dependent inhibition of CYP3A4 in human liver microsomes using testosterone as substrate; assay type: ADME
Cytochrome P450 3A4, sequence (P08684 whole entry): as above

[12] = tested on: Respiratory syncytial virus; assay: Antiviral activity against RSV Long infected in po dosed cotton rat model assessed as reduction in viral titer in broncho alveolar lavage fluid pretreated for 1 hr followed by viral infection measured after 4 days by plaque reduction assay; assay type: functional, organism-based; settings: for EC50: human respiratory syncytial virus
[13] = tested on: Respiratory syncytial virus; assay: Antiviral activity against RSV Long infected in po dosed cotton rat model assessed as reduction in viral titer in lung lavage fluid pretreated for 1 hr followed by viral infection measured after 4 days by plaque reduction assay; assay type: functional, organism-based; settings: for EC50: human respiratory syncytial virus
[14] = Clearance in dog plasma at 1 mg/kg, iv; assay type: ADME, organism-based, Canis lupus familiaris
[15] = Metabolic stability in dog liver microsomes assessed as compound metabolized after 15 mins; assay type: ADME, Canis lupus familiaris, Microsome; settings: read-out: Drug metabolism
[16] = Ratio of AUC (0 to last) in lung to plasma of Sprague-Dawley rat at 2.5 mg/kg, iv or 10 mg/kg, po; assay type: ADME, organism-based; settings: lung and plasma, read-out: Ratio AUC
[17] = Clearance in Sprague-Dawley rat plasma at 2.5 mg/kg, iv; assay type: ADME, organism-based
[18] = Oral bioavailability in Sprague-Dawley rat at 10 mg/kg; assay type: ADME, organism-based; settings: in vivo
[19] = Oral bioavailability in dog at 5 mg/kg; assay type: ADME, organism-based, Canis lupus familiaris; settings: in vivo
[20] = Clearance in dog plasma at 1 mg/kg, iv relative to liver blood flow; assay type: ADME, organism-based, Canis lupus familiaris; settings: in vivo
[21] = Clearance in Sprague-Dawley rat at 2 mg/kg, iv administered as single dose relative to liver blood flow; assay type: ADME, organism-based; settings: in vivo

| SMILES | metabolised at 0.25 h [1] [%] | CC50 at 72 h [2] [µM] | selectivity ratio (in vitro) | further results |
| --- | --- | --- | --- | --- |
| CC(C)CCn1c(Cn2c(=O)n(C3CC3)c3ccncc32)nc2ccncc21 | – | > 100 | > 987 | – |
| O=c1n(Cc2nc3cnccc3n2CCCCO)c2cnccc2n1C1CC1 | – | > 100 | > 18000 | – |
| CS(=O)(=O)CCCn1c(Cn2c(=O)n(C3CC3)c3ccncc32)cc2ccccc21 | – | > 100 | > 10000 | – |
| N#CCCCn1c(Cn2c(=O)n(C3CC3)c3ccncc32)cc2cc(Cl)ccc21 | 17 | > 50 | – | Kp [4]: 1.6; AUC [5]: 3300 ng·h/mL; Cmax [6]: 1230 ng/mL; clearance [7]: 36.7 mL/min/kg; Vd [8]: 1.5 L/kg; fraction unbound [9]: 0.036; metabolised at 0.25 h [10]: 80%; bioavailability [11]: 73% |
| O=c1n(Cc2cc3ccncc3n2CCCCO)c2cnccc2n1C1CC1 | – | > 100 | > 76 | – |
| CS(=O)(=O)CCCn1c(Cn2c(=O)n(CC(F)(F)F)c3ccncc32)cc2cc(Cl)ccc21 [RILEMATOVIR] | 1 | > 50 | – | TDI (Cytochrome P450 3A4): Not Active; Activity [12]: Dose-dependent effect; EC50 [12]: 0.075 µg/mL (≈ 0.15 µM); Activity [13]: Dose-dependent effect; EC50 [13]: 0.081 µg/mL (≈ 0.162 µM); clearance [14]: 8.5 mL/min/kg; metabolised at 0.25 h [15]: 28%; Kp [16]: 3.5; clearance [17]: 65 mL/min/kg; fraction unbound [9]: 0.06; bioavailability [18]: 42%; metabolised at 0.25 h [10]: 60% |
| O=c1n(Cc2cc3cnccc3n2CCCCO)c2cnccc2n1C1CC1 | – | > 100 | > 57000 | – |
| CC(C)CCn1c(Cn2c(=O)n(C3CC3)c3ccncc32)cc2ccccc21 | – | > 100 | 181 | fraction unbound [9]: 0.006 |
| O=c1n(Cc2nc3ncccc3n2CCCCO)c2cnccc2n1C1CC1 | – | > 100 | > 10000 | – |
| CC(C)CCn1c(Cn2c(=O)n(C3CC3)c3ccncc32)nc2cccnc21 | – | > 100 | > 80 | – |
| O=c1n(Cc2nc3nc(Cl)ccc3n2CCCC(F)(F)F)c2cnccc2n1C1CC1 | 0 | > 50 | – | Kp [4]: 0.4; AUC [5]: 3370 ng·h/mL; Cmax [6]: 1690 ng/mL; clearance [7]: 23.3 mL/min/kg; Vd [8]: 0.82 L/kg; fraction unbound [9]: 0.3; metabolised at 0.25 h [10]: 80%; bioavailability [11]: 46% |
| COc1ccc(-n2c(=O)n(Cc3cc4cc(Cl)ccc4n3CCCC#N)c3cnccc32)cc1 | 20 | > 50 | – | Activity [12]: Dose-dependent effect; EC50 [12]: 0.499 µg/mL (≈ 1.06 µM); bioavailability [19]: 9%; Activity [13]: Dose-dependent effect; EC50 [13]: 0.121 µg/mL (≈ 0.256 µM); clearance [14]: 24.8 mL/min/kg; metabolised at 0.25 h [15]: 96%; Kp [16]: 1.3; clearance [17]: 16.2 mL/min/kg; fraction unbound [9]: 0.005; bioavailability [18]: 86%; metabolised at 0.25 h [10]: 40%; CL [20]: 90% |
| N#CCCCn1c(Cn2c(=O)n(-c3ncccn3)c3ccncc32)cc2cc(Cl)ccc21 | 34 | > 50 | – | – |
| CC(C)(C)n1c(=O)n(Cc2cc3cc(Cl)ccc3n2CCCS(C)(=O)=O)c2cnccc21 | 28 | > 50 | – | – |
| CC(C)CCn1c(Cn2c(=O)n(C3CC3)c3ccncc32)nc2cnccc21 | – | > 100 | > 3000 | – |
| O=c1n(Cc2cc3ncccc3n2CCCCO)c2cnccc2n1C1CC1 | – | > 100 | > 613 | – |
| COc1ccc(-n2c(=O)n(Cc3cc4cc(Cl)ccc4n3CCCC#N)c3cnccc32)c(C)c1 | 36 | > 50 | – | – |
| CC1(n2c(=O)n(Cc3cc4cc(Cl)ccc4n3CCCS(C)(=O)=O)c3cnccc32)CC1 | 29 | > 50 | – | TDI (Cytochrome P450 3A4): Not Active |
| CC(C)CCn1c(Cn2c(=O)n(C3CC3)c3ccncc32)nc2ncccc21 | – | > 100 | > 12000 | – |
| N#CCCCn1c(Cn2c(=O)n(-c3ccncc3F)c3ccncc32)cc2cc(Cl)ccc21 | 27 | > 50 | – | – |

The next lines start with results.

| metabolised at 0.25 h [1] [%] | SMILES | CC50 at 72 h [2] [µM] | selectivity ratio (in vitro) | further results |
| --- | --- | --- | --- | --- |
| 9 | CS(=O)(=O)c1ccc(-n2c(=O)n(Cc3cc4cc(Cl)ccc4n3CCCC#N)c3cnccc32)cc1 | > 50 | – | solubility [3]: Insoluble |
| 18 | CS(=O)(=O)CCCn1c(Cn2c(=O)n(C3CC3)c3ccncc32)cc2cc(Cl)ccc21 | > 50 | – | IC50 shift (CYP3A4): 18 |
| 19 | COc1ccc(-n2c(=O)n(Cc3cc4cc(Cl)ccc4n3CCCC#N)c3cnccc32)cc1OC | > 50 | – | Activity [12]: Dose-dependent effect; EC50 [12]: 0.18 µg/mL (≈ 0.359 µM); bioavailability [19]: 26%; Activity [13]: Dose-dependent effect; EC50 [13]: 0.157 µg/mL (≈ 0.313 µM); clearance [14]: 14.3 mL/min/kg; metabolised at 0.25 h [15]: 56%; Kp [16]: 2.5; clearance [17]: 31.7 mL/min/kg; fraction unbound [9]: 0.008; bioavailability [18]: 32%; metabolised at 0.25 h [10]: 74%; CL [20]: 50% |
| 23 | N#CCCCn1c(Cn2c(=O)n(-c3ccncc3)c3ccncc32)cc2cc(Cl)ccc21 | > 50 | – | – |
| 9 | CS(=O)(=O)CCCn1c(Cn2c(=O)[nH]c3ccncc32)cc2cc(Cl)ccc21 | > 50 | – | TDI (Cytochrome P450 3A4): Not Active |
| 97 | CC(C)n1c(=O)n(Cc2cc3cc(Cl)ccc3n2CCCS(C)(=O)=O)c2cnccc21 | > 50 | – | TDI (Cytochrome P450 3A4): Not Active |
| 23 | O=c1n(Cc2cc3cc(Cl)ccc3n2CCCC(F)(F)F)c2cnccc2n1C1CC1 | > 50 | – | – |
| 21 | O=c1n(Cc2cc3cnccc3n2CCCC(F)(F)F)c2cnccc2n1C1CC1 | > 50 | – | Kp [4]: 11; AUC [5]: 545 ng·h/mL; Cmax [6]: 532 ng/mL; clearance [7]: 75 mL/min/kg; Vd [8]: 3.3 L/kg; fraction unbound [9]: 0.472; metabolised at 0.25 h [10]: 80%; bioavailability [11]: 28%; CL [21]: > 100% |
| 52 | CS(=O)(=O)CCCn1c(Cn2c(=O)n(C3COC3)c3ccncc32)cc2cc(Cl)ccc21 | > 50 | – | – |
| 98 | CS(=O)(=O)CCCn1c(Cn2c(=O)n(CC3CC3)c3ccncc32)cc2cc(Cl)ccc21 | > 50 | – | TDI (Cytochrome P450 3A4): Not Active |
| 60 | N#CCCCn1c(Cn2c(=O)n(-c3ccncn3)c3ccncc32)cc2cc(Cl)ccc21 | > 50 | – | – |
| 41 | CC(C)(O)CCCn1c(Cn2c(=O)n(C3CC3)c3ccncc32)nc2nc(Cl)ccc21 | > 50 | – | – |
| 15 | O=c1n(Cc2cc3cnccc3n2CCCCF)c2cnccc2n1C1CC1 | > 50 | – | – |
| 7 | CC(C)CCn1c(Cn2c(=O)n(C3CC3)c3ccncc32)nc2nc(Cl)ccc21 | > 50 | – | – |
| 0 | N#CCCCn1c(Cn2c(=O)n(C3CC3)c3ccncc32)nc2nc(Cl)ccc21 | > 50 | – | – |
| 0 | CS(=O)(=O)CCCn1c(Cn2c(=O)n(C3CC3)c3ccncc32)nc2nc(Cl)ccc21 | > 50 | – | – |

From ChEMBL document CHEMBL4619758, “Discovery of 3-({5-Chloro-1-[3-(methylsulfonyl)propyl]-1H-indol-2-yl}methyl)-1-(2,2,2-trifluoroethyl)-1,3-dihydro-2H-imidazo[4,5-c]pyridin-2-one (JNJ-53718678), a Potent and Orally Bioavailable Fusion Inhibitor of Respiratory Syncytial Virus” (J Med Chem, 2020)
